Experimental findings from the NIST ThermoML archive (doi:10.1016/j.jct.2010.04.027) are described below.

Numbers after ± are expanded uncertainties.

A short description of this series: molar enthalpy of vaporization or sublimation. Conditions: 298.15 K; Crystal; Static calorimetry.

`O=C1c2ccccc2Cc2ccccc21` [9(10H)-anthracenone]: the molar enthalpy turned out to be 25.5 ± 0.86 kcal/mol.
`c1ccc2c(c1)Cc1ccccc1O2` [10H-9-oxaanthracene]: the molar enthalpy was 22 ± 0.526 kcal/mol.
